# In patent US20230172200A1, “A LIQUID ANTI-PATHOGENIC AGRICULTURAL COMPOSITION” (ORO AGRI INC., priority 2019, published 2023):
# Experiment: Paraffin wax solubility test
# Type: physicochemical
# Conditions: 2.0 g paraffin wax in 98 g solvent, 25 °C; for Dissolution Time: stirring at 350 rpm; for Observation: up to 24-hours stirring
# From the text: A method to evaluate the capability of a solvent to dissolve paraffin wax was developed and it helps to understand how will be performed certain solvent when applied to an epicuticular surface of a plant or an insect.
smiles,measurement,value
CCCCCCCCCCCC(=O)OCC(CC)CCCC (stereo not shown) [2-ethylhexyl laurate],Dissolution Time,930 min
same,Observation,stable at 25° c.
"CCCCCCCCCC(=O)N(C)C [N,N-dimethyldecanamide]",Observation,undissolved after
O=C1CCCCC1 [cyclohexanone],Observation,undissolved after
C[S+](C)[O-] [dimethyl sulfoxide],Observation,undissolved after
CCCCCCCCCCCC(=O)OCCC(C)C [isoamyl laurate],Dissolution Time,620 min
same,Observation,stable at 25° c.
CCCCCCCCCCCC(=O)OCC(C)C [isobutyl laurate],Dissolution Time,340 min
same,Observation,stable at 25° c.
CCCCCCCCCCCC(=O)OC(C)C [isopropyl laurate],Dissolution Time,102 min
same,Observation,stable at 25° c.
CCCCCCCCCCCCCC(=O)OC(C)C [isopropyl myristate],Observation,stable at 25° c.
CCCCCCCCCCCC(=O)OC [methyl laurate],Dissolution Time,300 min
same,Observation,stable at 25° c.
CC1COC(=O)O1 (stereo not shown) [propylene carbonate],Observation,undissolved after
OCC1CCCO1 (stereo not shown) [tetrahydrofurfural alcohol],Observation,undissolved after
